Experimental data taken from patent US12264163B2, “Compounds and methods for treating fibrotic pathologies” (Mayo Foundation for Medical Education and Research, priority 2019, dated 2025).
Where a name gives a salt, the structure may show the parent alone. Read-outs that look alike come from different tables or passages of the source.

Experiments:
[1] = cited from earlier work
YAP/TAZ [2] = test: YAP/TAZ nuclear localization in IPF patient-derived lung fibroblasts treated with dopaminergic agonists; assay type: cell-based, human; details: 10 μM, 2 hours
Procedure, shortened: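 Fibroblasts from IPF patients (N=4 patient samples) were exposed to dopaminergic agonists at 10 μM for 2 h before fixation. Cells were immunostained for YAP/TAZ with DAPI counterstain and imaged at 4×. Percent nuclear YAP/TAZ localization was quantified by automated image analysis.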

αSMA [3] = test: αSMA intensity (fibroblast activation) in IPF patient-derived lung fibroblasts + TGFβ, dopaminergic agonist library; assay type: cell-based, human; details: Homo sapiens, SMA, 72 h, 1 μM + TGFβ, read-out: αSMA intensity (% of DMSO control)
Protocol: Media was then exchanged for the indicated conditions for each experiment. […] Cells or tissue sections were incubated overnight with mouse monoclonal antibody against αSMA (Sigma-Aldrich F3777), and/or a rabbit monoclonal antibody against YAP/TAZ (Cell Signaling D24E4) diluted 1:200 in PBS with 1% BSA. Cells were then washed and exposed to flourescence-conjugated secondary antibodies (Invitrogen) diluted 1:1000 and DAPI (Thermo Fisher Scientific). Images were taken with a Cytation5 (BioTek) microscope. For scoring αSMA positive cells (FIG. 12), an observer blinded to the treatment conditions counted αSMA-positive cells using a visual threshold for bright fibrous staining; a minimum of 200 cells was counted for each condition. YAP/TAZ localization was quantified (FIGS. 6-10, 24-26, and 29-30) using Gen5 (Biotek) software. Images were taken at 4× magnification of both DAPI and YAP/TAZ staining. […] Quantification of double positive (YAP/TAZ and αSMA) cells from lung tissue sections (FIG. 17-21) was performed similarly; however separate thresholds were established for both YAP/TAZ and αSMA. A minimum of 4000 cells was quantified for each mouse.

Collagen I = Collagen I deposition by TGFβ-stimulated adult lung fibroblasts (LI-COR Odyssey); assay type: cell-based; details: Homo sapiens, Fibroblast, 2 ng/mL TGFβ 96 hours, compound every 48 hours
Protocol: (§1) FIG. 72 contains a line plot showing that compound CTC-3 inhibits Collagen I deposition. Adult lung fibroblasts plated into 96-well plates, stimulated with 2 ng/mL TGFβ for 96 hours and treated with the indicated concentration of compounds every 48 hours. Imaging and quantification of Collagen I intensity performed through automation using a LI-COR Odyssey.
as §1, with “73” for “72”, “CTC-6” for “CTC-3”, “Odyssey. (IC50 is 0.4 μM).” for “Odyssey.”
as §1, with “91B” for “72”, “1” for “CTC-3”
Imaging and quantification of collagen I intensity performed through automation using a LI-COR Odyssey.

αSMA [4] = test: Fibroblast activation: αSMA intensity in TGFβ-stimulated adult lung fibroblasts; assay type: cell-based; details: Homo sapiens, SMA, 2 ng/mL TGFβ 96 hours, compound every 48 hours
Protocol: as §1, with “70” for “72”, “fibroblast activation.” for “Collagen I deposition.”, “αSMA” for “Collagen I”, “Cytation 5. (IC50 is 0.3 μM).” for “LI-COR Odyssey.”
as §1, with “71” for “72”, “CTC-6” for “CTC-3”, “fibroblast activation.” for “Collagen I deposition.”, “αSMA” for “Collagen I”, “Cytation 5.” for “LI-COR Odyssey.”
as §1, with “91A” for “72”, “1” for “CTC-3”, “fibroblast activation.” for “Collagen I deposition.”, “αSMA” for “Collagen I”, “Cytation 5.” for “LI-COR Odyssey.”
Alpha-smooth muscle actin (αSMA) staining is a well-defined marker of fibroblast activation observed in wound healing and tissue fibrosis. […] Imaging and quantification of αSMA intensity performed through automation using a Cytation 5.

lung fibroblasts = test: Fibroblast proliferation (counting DAPI nuclei); assay type: cell-based, human; details: adult lung fibroblasts, 2 ng/mL TGFβ, DAPI nuclei count
Protocol: IPF fibroblast and Normal lung fibroblast co-culture proliferation. Cell are prelabelled with fluorescent dyes (red and green) and then cocultured at a ratio of about 1:1 in 96 well plates. Cell counts are determined every 24 hours and plotted as a ratio of IPF/HLF cells. In the control wells the IPF cells outgrow and take over the well. N=2.
Proliferation of lung fibroblasts (IMR-90 cells) measured for 4 days in the presence of GPCR agonists ET-1 (100 nM) and LPA (10 μM)+/−10 μM DHX. Cells were fixed and counted with DAPI at the end of each day. N=3 technical triplicates.
Adult lung fibroblasts plated into 96-well plates, stimulated with 2 ng/mL TGFβ and compounds at the indicated concentration. Proliferation determined by fixing and counting DAPI nuclei using a Cytation 5. N=2.
Fibroblasts were stimulated with 2 ng/mL TGFβ and treated with compound 1 (MS-9) at the indicated concentration (0.1 μM, 1 μM, and 10 μM). Proliferation determined by fixing and counting DAPI nuclei using a Cytation.

YAP/TAZ [5] = test: YAP/TAZ nuclear localization in adult lung fibroblasts, dose response (Cytation 5); assay type: cell-based; details: Homo sapiens, Fibroblast, 2 h, adult lung fibroblasts sparsely plated, treated 2 hours; read-out: IC50, inhibition of YAP/TAZ nuclear localization
Protocol: Adult lung fibroblasts (N=2) sparsely plated into 96-well plates. Treated for 2 hours with compounds prior to fixing and immunostaining for YAP/TAZ.
(§2) Immunofluorescence Microscopy: Cells were plated into 96 well plates (Corning 3603) in their specific growth media and allowed to attach (8 hours). Media was then exchanged for the indicated conditions for each experiment. Cells were fixed in 3.7% formalin (Sigma-Aldrich), permeabilized in 0.25% Triton X-100 (Sigma-Aldrich) and then blocked with 1% BSA for 1 h. Cells or tissue sections were incubated overnight with mouse monoclonal antibody against αSMA (Sigma-Aldrich F3777), and/or a rabbit monoclonal antibody against YAP/TAZ (Cell Signaling D24E4) diluted 1:200 in PBS with 1% BSA. Cells were then washed and exposed to flourescence-conjugated secondary antibodies (Invitrogen) diluted 1:1000 and DAPI (Thermo Fisher Scientific). Images were taken with a Cytation5 (BioTek) microscope. For scoring αSMA positive cells (FIG. 12), an observer blinded to the treatment conditions counted αSMA-positive cells using a visual threshold for bright fibrous staining; a minimum of 200 cells was counted for each condition. YAP/TAZ localization was quantified (FIGS. 6-10, 24-26, and 29-30) using Gen5 (Biotek) software. Images were taken at 4× magnification of both DAPI and YAP/TAZ staining. […] Quantification of double positive (YAP/TAZ and αSMA) cells from lung tissue sections (FIG. 17-21) was performed similarly; however separate thresholds were established for both YAP/TAZ and αSMA. A minimum of 4000 cells was quantified for each mouse.

YAP/TAZ [6] = test: YAP/TAZ nuclear localization in IMR-90 and other fibroblasts / mesenchymal cells (immunofluorescence); assay type: cell-based, human; details: fibroblasts / mesenchymal cells on plastic, 2 hours
Protocol: Selective agonists of dopamine receptor D1 with varying efficacy inhibit YAP/TAZ nuclear localization; this effect can be overcome by treatment with a DRD1 receptor antagonist (SCH 39166, 3 μM), (Dihydrexidine, 10 μM). IMR-90 cells treated 2 hours prior to fixation. N=4 (****p<0.0001 vs. 0.10% DMSO vehicle control). Scale bar represents 100 μm.
In each case DHX treatment (10 μM) can reverse this effect on YAP/TAZ. IMR-90 cells plated densely onto plastic cell culture plates for 24 hours in media containing 0.1% FBS, treated for 2 hours prior to fixation. N=4 (****p<0.0001 vs. 0.1% DMSO vehicle control), (++++p<0.0001 vs. the respective stimulated agonist ET-1, LPA, or 5-HT). Scale bar represents 100 μm.
Mesenchymal cells derived from lung (IMR-90 and IPF-FBs) hepatic stellate cells (HSC), human adult cardiac fibroblasts, (HACF) and human dermal fibroblasts (HDF) were plated densely (Confluent) or sparsely (Control and all remaining conditions) onto plastic cell culture plates for 24 hours in media containing 0.10% FBS, treated for 2 hours with Rho kinase inhibitor Y27632, adenylate cyclase activator forskolin and DHX. N=4, Cells that were positive for nuclear YAP/TAZ were quantified by automated image analysis.
as §2

Compound	oxidation / stability at physiological pH [1]	Nuclear localization (% of total cells) (YAP/TAZ [2]; IPF-1 patient fibroblasts)	Nuclear localization (% of total cells) (YAP/TAZ [2]; IPF-2 patient fibroblasts)	Nuclear localization (% of total cells) (YAP/TAZ [2]; IPF-3 patient fibroblasts)	Nuclear localization (% of total cells) (YAP/TAZ [2]; IPF-4 patient fibroblasts)	activity at 1 µM (αSMA [3]; IPF-1 patient fibroblasts) [%]	activity at 1 µM (αSMA [3]; IPF-2 patient fibroblasts) [%]	activity at 1 µM (αSMA [3]; IPF-3 patient fibroblasts) [%]	activity at 1 µM (αSMA [3]; IPF-4 patient fibroblasts) [%]	IC50 (Collagen I) [nM]	IC50 (αSMA [4]) [nM]	fibroblast proliferation (lung fibroblasts)	IC50 (YAP/TAZ [5]) [nM]	YAP/TAZ nuclear localization (YAP/TAZ [6])
CN1CCc2cccc3c2[C@H]1Cc1ccc(O)c(O)c1-3 [(R)-(−)-Apomorphine•HCl, (R)-(−)-Apomorphine]	oxidized into the inactive quinone	29.21 % of total cells	31.97 % of total cells	27.47 % of total cells	17.86 % of total cells	7.07	1.17	0.962	33.7					
NCC1OC(C2CCOCC2)Cc2c1ccc(O)c2O (stereo not shown) [CTC-3]										700	300	inhibits fibroblast proliferation		
NCC1OC(c2ccncc2)Cc2c1ccc(O)c2O (stereo not shown) [CTC-6]										400	100	inhibits fibroblast proliferation	62	
Oc1ccc(C2CNCCc3c2cc(O)c(O)c3Cl)cc1 (stereo not shown) [Fenoldopam•HCl, Fenoldopam]	stable at physiological pH	68.1 % of total cells	50.32 % of total cells	66.64 % of total cells	63 % of total cells									reduced nuclear localization of YAP/TAZ
